Results from patent US10377774B2 (JINAN UNIVERSITY, priority 2013, dated 2019).
Marks after values point to notes of the source that are not given here.

Key:
[1] = system: human colon cancer cell line LOVO; experiment: MTT cell growth inhibition, LOVO; type: cell-based; conditions: LOVO (FAPα positive), MTT assay, 72 h; read-out: IC50, growth of tumor cell line
Description: (§3) Experimental method: Cell lines (human non-small-cell lung cancer cell line A549, human colon cancer cell line LOVO, human nasopharyngeal carcinoma cell line CNE-2, human liver cancer cell line HepG2, human cervical carcinoma cell line Hela, human breast cancer cell lines MCF-7 and MDA-MB-231, human gastric carcinoma cell line NCI-N87, human prostatic cancer cell lines PC-3 and DU145, human leukemia cell line K562, human melanoma cell line A375, human neuroblastoma cell line SH-SY5H, human promyelocytic leukemia cell line HL-60, 5-FU-resistant human hepatocellular carcinoma cell line BEL-7402/5-Fu, doxorubicin-resistant hepatocellular carcinoma cell line HepG2/ADM, doxorubicin-resistant human breast cancer cell lines MCF-7/ADR) at logarithmic phase were resuspended in RPMI 1640 medium (containing 10% fetal bovine serum, 100 U/mL penicillin-streptomycin). Then, 100 μL of cells (cell concentration was 5×10^5/mL) were seeded into 96 wells plate. After 24 h incubation at 37° C. with 5% CO2, tested compounds were added (the control group without compound) for an additional 72 h incubation. After that, 30 μL of MTT [3-(4,5-Dimethylthiazol-2-yl)-2,5-diphenyltetrazolium bromide] solution (5 mg/mL) was added into each well and incubated for another 4 h at 37° C. and then the formazan crystals were solubilized with 100 μL DMSO. Finally, absorbance of each well was determined at 570 nm by a microplate reader (Thermo).
(§4) The concentration required to inhibit cell growth by 50% (IC50) was calculated from survival curves.

[2] = system: human non-small-cell lung cancer cell line A549; experiment: MTT cell growth inhibition, A549; type: cell-based; conditions: A549, MTT assay, 72 h; read-out: IC50, growth of tumor cell line
Description: as §3, §4

[3] = system: human cervical carcinoma cell line Hela; experiment: MTT cell growth inhibition, Hela; type: cell-based; conditions: MTT assay, 72 h, read-out: IC50, growth of tumor cell line
Description: as §3, §4

[4] = system: human nasopharyngeal carcinoma cell line CNE-2; experiment: MTT cell growth inhibition, CNE-2; type: cell-based; conditions: CNE-2, MTT assay, 72 h; read-out: IC50, growth of tumor cell line
[5] = system: human gastric carcinoma cell line NCI-N87; experiment: MTT cell growth inhibition, NCI-N87; type: cell-based; conditions: NCI-N87, MTT assay, 72 h; read-out: IC50, growth of tumor cell line
Description: as §3, §4

[6] = system: human promyelocytic leukemia cell line HL-60; experiment: MTT cell growth inhibition, HL-60; type: cell-based; conditions: HL-60, MTT assay, 72 h; read-out: IC50, growth of tumor cell line
Description: as §3, §4

[7] = system: human prostatic cancer cell line DU145; experiment: MTT cell growth inhibition, DU-145; type: cell-based; conditions: DU-145, MTT assay, 72 h; read-out: IC50, growth of tumor cell line
Description: as §3, §4

[8] = system: human melanoma cell line A375; experiment: MTT cell growth inhibition, A375; type: cell-based; conditions: A375, MTT assay, 72 h; read-out: IC50, growth of tumor cell line
[9] = system: human leukemia cell line K562; experiment: MTT cell growth inhibition, K562; type: cell-based; conditions: K562, MTT assay, 72 h; read-out: IC50, growth of tumor cell line
K562 xenografts = K562 xenografts in nude mice; type: in vivo; conditions: K562 xenograft nude mice; for Anti-tumor rate (%) / Body weight (g) Post-dose / Tumor weight: 1 mg/kg; for Body weight (g) Pre-dose: before dosing
Description: (§1) Experimental method: The MDA-MB-231 cells at logarithmic phase were digested and washed twice with PBS. Then, 100 μL cells (1×10^7) were inoculated subcutaneously on the backs of female BALB/nu/nu mice. After tumors grew to 70˜100 mm^3, the mice were divided randomly into saline group (control group), vinca alkaloids groups (VLB, CCRB, CCFN, CCXJ) and vinca alkaloid derivatives groups (JJ-CCJ, BX-CCJ, JJ-CCRB, BX-CCRB, JJ-CCFN, BX-CCFN, JJ-CCXJ and BX-CCXJ), with six mice per group. 1 mg/kg drugs were injected intraperitoneally every two days, meanwhile body weight and tumor sizes were measured. Experiment was ended after 8 times of drug administration, then tumor and organs were stripped. Tumor volumes were measured using the following formula: V=½(ab^2), whereas a refers to the longest diameter and b is the shortest diameter.
(§2) Tumor xenograft models of HepG2, LOVO, K562 and HL-60 cell lines were performed as the method described above.

[10] = system: doxorubicin-resistant human breast cancer cell lines MCF-7/ADR; experiment: MTT cell growth inhibition, MCF-7/ADR; type: cell-based; conditions: MTT assay, 72 h, read-out: IC50, growth of tumor cell line
Description: as §3, §4

HL-60 xenografts = HL-60 xenografts in nude mice; type: in vivo; conditions: HL-60 xenograft nude mice; for Anti-tumor rate (%) / Body weight (g) Post-dose / Tumor weight: 1 mg/kg; for Body weight (g) Pre-dose: before dosing
Description: as §1, §2

[11] = system: human prostatic cancer cell line PC-3; experiment: MTT cell growth inhibition, PC-3; type: cell-based; conditions: PC-3, MTT assay, 72 h; read-out: IC50, growth of tumor cell line
Description: as §3, §4

Kunming mice = experiment: Acute toxicity test; type: in vivo; conditions: injected intraperitoneally
Description: Experimental method: Kunming mice were purchased from Guangdong Medical Experimental Animal Center, weighing 18-22 g, then randomly divided into several groups with 10 mice in each group. Different concentrations of VLB and vinca alkaloid dipeptide derivatives were injected intraperitoneally. Finally, the median lethal dose (LD50) was calculated according to the surviving animals.
LD50 was measured using the following formula:
LD50 (mg/kg)=The median lethal dose/body weight

LOVO xenografts = LOVO xenografts in nude mice; type: in vivo; conditions: LOVO xenograft nude mice; for Anti-tumor rate (%) / Body weight (g) Post-dose / Tumor weight: 1 mg/kg; for Body weight (g) Pre-dose: before dosing
Description: as §1, §2

[12] = system: human neuroblastoma cell line SH-SY5H; experiment: MTT cell growth inhibition, SH-SY5H; type: cell-based; conditions: MTT assay, 72 h, read-out: IC50, growth of tumor cell line
[13] = system: 5-FU-resistant human hepatocellular carcinoma cell line BEL-7402/5-Fu; experiment: MTT cell growth inhibition, BEL-7402/5-Fu; type: cell-based; conditions: MTT assay, 72 h, read-out: IC50, growth of tumor cell line
Description: as §3, §4

MDA-MB-231 xenografts = MDA-MB-231 xenografts in nude mice; type: in vivo, BALB/nu/nu mice; conditions: MDA-MB-231 xenograft nude mice; for Anti-tumor rate (%) / Body weight (g) Post-dose / Tumor weight: 1 mg/kg i.p. every two days, 8 administrations; for Body weight (g) Pre-dose: before dosing
Description: as §1

[14] = system: human normal liver cells LO2; experiment: MTT cytotoxicity on normal cells, LO2; conditions: read-out: IC50, cytotoxicity on normal cell line; LO2, MTT assay
Description: Then, 100 μL of cells (cell concentration was 5×10^5/mL) were seeded into 96 wells plate. After 24 h incubation at 37° C. with 5% CO2, tested compounds were added (the control group without compound) for an additional 72 h incubation. After that, 30 μL of MTT [3-(4,5-Dimethylthiazol-2-yl)-2,5-diphenyltetrazolium bromide] solution (5 mg/mL) was added into each well and incubated for another 4 h at 37° C. and then the formazan crystals were solubilized with 100 μL DMSO. Finally, absorbance of each well was determined at 570 nm by a microplate reader (Thermo).
The standard curve was drew with compound concentrations as the abscissa and cell growth inhibition rates as the ordinate. The concentration required to inhibit cell growth by 50% (IC50) was calculated from survival curves.
Experimental method: In vitro cytotoxicities of vinca alkaloids, hydrazinolyzed vinca alkaloids and vinca alkaloid dipeptide derivatives on human normal liver cells LO2 and human umbilical vein endothelial cells HUVEC were detected according to the method of Example 2.

[15] = system: doxorubicin-resistant hepatocellular carcinoma cell line HepG2/ADM; experiment: MTT cell growth inhibition, HepG2/ADM; type: cell-based, human; conditions: MTT assay, 72 h, read-out: IC50, growth of tumor cell line
Description: as §3, §4

[16] = system: human liver cancer cell line HepG2; experiment: MTT cell growth inhibition, HepG2; type: cell-based; conditions: HepG2, MTT assay, 72 h; read-out: IC50, growth of tumor cell line
[17] = system: human breast cancer cell line MCF-7; experiment: MTT cell growth inhibition, MCF-7; type: cell-based; conditions: MCF-7, MTT assay, 72 h; read-out: IC50, growth of tumor cell line
Description: as §3, §4

[18] = system: human umbilical vein endothelial cells HUVEC; experiment: MTT cytotoxicity on normal cells, HUVEC; conditions: read-out: IC50, cytotoxicity on normal cell line; HUVEC, MTT assay
HepG2 xenografts = HepG2 xenografts in nude mice; type: in vivo; conditions: HepG2 xenograft nude mice; for Anti-tumor rate (%) / Body weight (g) Post-dose / Tumor weight: 1 mg/kg; for Body weight (g) Pre-dose: before dosing
Description: as §1, §2

[19] = system: human breast cancer cell line MDA-MB-231; experiment: MTT cell growth inhibition, MDA-MB-231; type: cell-based; conditions: MDA-MB-231, MTT assay, 72 h; read-out: IC50, growth of tumor cell line
Description: as §3, §4

SMILES	IC50 [1] [nM]	IC50 [2] [nM]	IC50 [3] [nM]	IC50 [4] [nM]	IC50 [5] [nM]	IC50 [6] [nM]	IC50 [7] [nM]	IC50 [8] [nM]	IC50 [9] [nM]	Anti-tumor rate (%) (K562 xenografts)	Body weight (g) Post-dose (K562 xenografts) [g]	Tumor weight (K562 xenografts) [g]	Body weight (g) Pre-dose (K562 xenografts) [g]	Anti-tumor rate (%) (HL-60 xenografts)	Body weight (g) Post-dose (HL-60 xenografts) [g]	Tumor weight (HL-60 xenografts) [g]	Body weight (g) Pre-dose (HL-60 xenografts) [g]	IC50 [11] [nM]	LD50 (median lethal dose) (Kunming mice) [mg/kg]	Anti-tumor rate (%) (LOVO xenografts)	other results
CCC12C=CCN3CCC4(c5cc(C6(C(=O)OC)CC7CC(C(C)(F)F)CN(Cc8c6[nH]c6ccccc86)C7)c(OC)cc5N(C)C4C(O)(C(=O)NNC(=O)C4CCCN4C(=O)CNC(=O)OCc4ccccc4)C1O)C32 (centres unmarked) [BX-CCFN, Z-GP-NHNH-Vinflunine]	320 ± 8.51	335 ± 7.31	430 ± 10.1	309 ± 5.78	430 ± 10.4	726 ± 98.2	289 ± 28.8	528 ± 34.8	229 ± 6.6	66.08** %	23.0 ± 0.8	0.57 ± 0.13	22.9 ± 1.3	70.68** %	18.6 ± 1.4	0.61 ± 0.35	18.7 ± 1.4	317 ± 31.3	15	83.63** %	IC50 [10]: 908 ± 20.2 nM; Body weight (g) Post-dose (LOVO xenografts): 24.5 ± 1.5 g; Tumor weight (LOVO xenografts): 0.47 ± 0.31 g; Body weight (g) Pre-dose (LOVO xenografts): 23.6 ± 1.3 g; IC50 [12]: 459 ± 13.5 nM; IC50 [13]: 390 ± 15.7 nM; Anti-tumor rate (%) (MDA-MB-231 xenografts): 88.13** %; Body weight (g) Post-dose (MDA-MB-231 xenografts): 20.6 ± 1.6 g; Tumor weight (MDA-MB-231 xenografts): 0.31 ± 0.11 g; Body weight (g) Pre-dose (MDA-MB-231 xenografts): 20.2 ± 0.7 g; IC50 [14]: 301 ± 14.3 nM; IC50 [15]: 604 ± 17.9 nM; IC50 [16]: 299 ± 7.64 nM; IC50 [17]: 606 ± 11.5 nM; IC50 [18]: 270 ± 7.7 nM; Anti-tumor rate (%) (HepG2 xenografts): 88.24** %; Body weight (g) Post-dose (HepG2 xenografts): 22.1 ± 1.2 g; Tumor weight (HepG2 xenografts): 0.30 ± 0.17 g; Body weight (g) Pre-dose (HepG2 xenografts): 21.9 ± 1.3 g; IC50 [19]: 614 ± 9.29 nM
CCC1=CC2CN(C1)Cc1c([nH]c3ccccc13)C(C(=O)OC)(c1cc3c(cc1OC)N(C)C1C(O)(C(=O)NNC(=O)C4CCCN4C(=O)CNC(=O)OCc4ccccc4)C(O)C4(CC)C=CCN5CCC31C54)C2 (centres unmarked) [BX-CCRB, Z-GP-NHNH-Vinorelbine]	123 ± 11.4	115 ± 5.23	182 ± 2.36	210 ± 5.78	244 ± 9.33	208 ± 18.4	219 ± 6.29	120 ± 14.5	109 ± 4.66	72.62** %	23.4 ± 1.2	0.46 ± 0.29	22.1 ± 0.5	74.52** %	19.2 ± 1.3	0.53 ± 0.28	19.0 ± 1.2	269.8 ± 2.03	12	80.14** %	Body weight (g) Post-dose (LOVO xenografts): 24.1 ± 2.3 g; Tumor weight (LOVO xenografts): 0.57 ± 0.23 g; Body weight (g) Pre-dose (LOVO xenografts): 23.6 ± 1.2 g; IC50 [12]: 166 ± 15.6 nM; IC50 [13]: 325 ± 11.7 nM; Anti-tumor rate (%) (MDA-MB-231 xenografts): 85.83** %; Body weight (g) Post-dose (MDA-MB-231 xenografts): 20.1 ± 0.9 g; Tumor weight (MDA-MB-231 xenografts): 0.37 ± 0.07 g; Body weight (g) Pre-dose (MDA-MB-231 xenografts): 19.1 ± 1.7 g; IC50 [14]: 183 ± 5.51 nM; IC50 [15]: 437 ± 14.4 nM; IC50 [16]: 167 ± 4.37 nM; IC50 [17]: 238 ± 8.37 nM; IC50 [18]: 167 ± 8.87 nM; Anti-tumor rate (%) (HepG2 xenografts): 85.49** %; Body weight (g) Post-dose (HepG2 xenografts): 22.6 ± 0.5 g; Tumor weight (HepG2 xenografts): 0.37 ± 0.09 g; Body weight (g) Pre-dose (HepG2 xenografts): 22.2 ± 1.5 g; IC50 [19]: 181 ± 8.1 nM
CCC1(O)CC2CN(CCc3c([nH]c4ccccc34)C(C(=O)OC)(c3cc4c(cc3OC)N(C=O)C3C(O)(C(=O)NNC(=O)C5CCCN5C(=O)CNC(=O)OCc5ccccc5)C(O)C5(CC)C=CCN6CCC43C65)C2)C1 (centres unmarked) [BX-CCXJ, Z-GP-NHNH-Vincristine]	24.9 ± 1.78	47.7 ± 2.64	55.3 ± 1.9	40.1 ± 2.09	43.2 ± 3.53	72.8 ± 4.59	76.9 ± 4.55	54.8 ± 8.41	44.9 ± 3.28	75.00** %	22.5 ± 1.1	0.42 ± 0.14	21.2 ± 0.9	72.12** %	19.7 ± 0.9	0.58 ± 0.17	19.3 ± 1.1	88.9 ± 6.84	10	79.45** %	IC50 [10]: 169 ± 5.67 nM; Body weight (g) Post-dose (LOVO xenografts): 24.2 ± 1.7 g; Tumor weight (LOVO xenografts): 0.59 ± 0.33 g; Body weight (g) Pre-dose (LOVO xenografts): 23.8 ± 1.0 g; IC50 [12]: 61.7 ± 6.14 nM; IC50 [13]: 326 ± 13.3 nM; Anti-tumor rate (%) (MDA-MB-231 xenografts): 91.18** %; Body weight (g) Post-dose (MDA-MB-231 xenografts): 21.9 ± 2.9 g; Tumor weight (MDA-MB-231 xenografts): 0.23 ± 0.09 g; Body weight (g) Pre-dose (MDA-MB-231 xenografts): 19.5 ± 1.4 g; IC50 [14]: 101 ± 9.02 nM; IC50 [15]: 135 ± 5.54 nM; IC50 [16]: 33.4 ± 2.01 nM; IC50 [17]: 73.2 ± 3.66 nM; IC50 [18]: 176 ± 5.51 nM; Anti-tumor rate (%) (HepG2 xenografts): 88.63** %; Body weight (g) Post-dose (HepG2 xenografts): 21.9 ± 2.1 g; Tumor weight (HepG2 xenografts): 0.29 ± 0.13 g; Body weight (g) Pre-dose (HepG2 xenografts): 22.2 ± 1.2 g; IC50 [19]: 57.3 ± 3.36 nM
